In patent US20210254272A1, “TEXTILES HAVING ANTIMICROBIAL PROPERTIES” (Livinguard AG, priority 2015, published 2021):

Tested on: E. coli (ATCC 25922)
Assay: AATCC Test Method 100-2012 antibacterial activity of the treated textile, after 25 washes and 12 abrasion cycles, contact time 60 minutes
Type: cell-based
Conditions: for Performance Test-Log reduction of antimicrobial performance: pad process, 2 min
Description: The antibacterial activity of the textile was tested in accordance with AATCC Test Method 100-2012. Prior to the test, the fabric was cut into coupons of 2×4 inches and washed separately 25 times, and exposed to 12 abrasion cycles, as per US EPA protocol 90072PA4 (described further below). The tests were made against E. coli (ATCC 25922). Contact time was 60 minutes, after inoculating with 10^8 CFU per coupon.

## CCCCCCCCCCCCCCCCCC[N+](C)(C)CCC[Si](OC)(OC)OC [Organosilane, dimethyloctadecyl[3-(trimethoxysilyl)propyl] ammonium chloride]
Single agent 5 gm/lit, curing 180° C.
  Performance Test-Log reduction of antimicrobial performance: 0.93 Log
Single agent 10 gm/lit, curing 120° C.
  Performance Test-Log reduction of antimicrobial performance: 0.38 Log
Single agent 10 gm/lit, curing 140° C.
  Performance Test-Log reduction of antimicrobial performance: 0.53 Log
Single agent 10 gm/lit, curing 150° C.
  Performance Test-Log reduction of antimicrobial performance: 0.62 Log
Single agent 10 gm/lit, curing 160° C.
  Performance Test-Log reduction of antimicrobial performance: 0.98 Log
Single agent 10 gm/lit, curing 180° C.
  Performance Test-Log reduction of antimicrobial performance: 2.21 Log
Pure cotton fabric, exhaust 80° C., 60 min, dosage 0.1% o.w.f
  Log reduction of antimicrobial performance: 0.81 Log
Pure cotton fabric, exhaust 80° C., 60 min, dosage 0.2% o.w.f
  Log reduction of antimicrobial performance: 1.67 Log
Pure cotton fabric, exhaust 80° C., 60 min, dosage 0.5% o.w.f
  Log reduction of antimicrobial performance: 1.83 Log
Pure cotton fabric, exhaust 80° C., 60 min, dosage 0.8% o.w.f
  Log reduction of antimicrobial performance: 2.17 Log
Pure cotton fabric, exhaust 80° C., 60 min, dosage 1.0% o.w.f
  Log reduction of antimicrobial performance: 2.56 Log
Pure cotton, exhaust 80° C., 1% o.w.f, 60 min, curing 180° C., curing dwell time 0.5 min
  Log reduction of antimicrobial performance: 0.3 Log
Pure cotton, exhaust 80° C., 1% o.w.f, 60 min, curing 180° C., curing dwell time 1.0 min
  Log reduction of antimicrobial performance: 1.1 Log
Pure cotton, exhaust 80° C., 1% o.w.f, 60 min, curing 180° C., curing dwell time 1.5 min
  Log reduction of antimicrobial performance: 1.8 Log
Pure cotton, exhaust 80° C., 1% o.w.f, 60 min, curing 180° C., curing dwell time 2.0 min
  Log reduction of antimicrobial performance: 2.5 Log
Pure cotton, exhaust 80° C., 1% o.w.f, 60 min, curing 180° C., curing dwell time 2.5 min
  Log reduction of antimicrobial performance: 2.4 Log
Pure cotton, exhaust 80° C., 1% o.w.f, 60 min, curing 180° C., curing dwell time 3.0 min
  Log reduction of antimicrobial performance: 1.4 Log
Pure polyester fabric, exhaust 80° C., 60 min, curing 180° C., curing dwell time 0.5 min
  Log reduction of antimicrobial performance: 0.4 Log
Pure polyester fabric, exhaust 80° C., 60 min, curing 180° C., curing dwell time 1.0 min
  Log reduction of antimicrobial performance: 1.2 Log
Pure polyester fabric, exhaust 80° C., 60 min, curing 180° C., curing dwell time 1.5 min
  Log reduction of antimicrobial performance: 1.7 Log
Pure polyester fabric, exhaust 80° C., 60 min, curing 180° C., curing dwell time 2.0 min
  Log reduction of antimicrobial performance: 2.75 Log
Pure polyester fabric, exhaust 80° C., 60 min, curing 180° C., curing dwell time 2.5 min
  Log reduction of antimicrobial performance: 2.45 Log
Pure polyester fabric, exhaust 80° C., 60 min, curing 180° C., curing dwell time 3.0 min
  Log reduction of antimicrobial performance: 1.3 Log
Pure polyester fabric, exhaust 80° C., 60 min, dosage 0.1% o.w.f
  Log reduction of antimicrobial performance: 0.72 Log
Pure polyester fabric, exhaust 80° C., 60 min, dosage 0.2% o.w.f
  Log reduction of antimicrobial performance: 1.65 Log
Pure polyester fabric, exhaust 80° C., 60 min, dosage 0.5% o.w.f
  Log reduction of antimicrobial performance: 1.75 Log
Pure polyester fabric, exhaust 80° C., 60 min, dosage 0.8% o.w.f
  Log reduction of antimicrobial performance: 2.16 Log
Pure polyester fabric, exhaust 80° C., 60 min, dosage 1.0% o.w.f
  Log reduction of antimicrobial performance: 2.58 Log
Solution dosage 0.10% o.w.f, exhaust temperature 40° C., process time 60 min
  Log reduction of antimicrobial performance: 0 Log
Solution dosage 0.10% o.w.f, exhaust temperature 60° C., process time 60 min
  Log reduction of antimicrobial performance: 0 Log
Solution dosage 0.10% o.w.f, exhaust temperature 65° C., process time 60 min
  Log reduction of antimicrobial performance: 0 Log
Solution dosage 0.10% o.w.f, exhaust temperature 70° C., process time 60 min
  Log reduction of antimicrobial performance: 0 Log
Solution dosage 0.10% o.w.f, exhaust temperature 75° C., process time 60 min
  Log reduction of antimicrobial performance: 0.63 Log
Solution dosage 0.10% o.w.f, exhaust temperature 80° C., process time 60 min
  Log reduction of antimicrobial performance: 0.78 Log
Solution dosage 0.10% o.w.f, exhaust temperature 85° C., process time 60 min
  Log reduction of antimicrobial performance: 0.81 Log
Solution dosage 0.10% o.w.f, exhaust temperature 90° C., process time 60 min
  Log reduction of antimicrobial performance: 0.82 Log
Solution dosage 0.10% o.w.f, exhaust temperature 95° C., process time 60 min
  Log reduction of antimicrobial performance: 0.82 Log
Solution dosage 0.20% o.w.f, exhaust temperature 40° C., process time 60 min
  Log reduction of antimicrobial performance: 0 Log
Solution dosage 0.20% o.w.f, exhaust temperature 60° C., process time 60 min
  Log reduction of antimicrobial performance: 0.09 Log
Solution dosage 0.20% o.w.f, exhaust temperature 65° C., process time 60 min
  Log reduction of antimicrobial performance: 0.10 Log
Solution dosage 0.20% o.w.f, exhaust temperature 70° C., process time 60 min
  Log reduction of antimicrobial performance: 0.17 Log
Solution dosage 0.20% o.w.f, exhaust temperature 75° C., process time 60 min
  Log reduction of antimicrobial performance: 0.92 Log
Solution dosage 0.20% o.w.f, exhaust temperature 80° C., process time 60 min
  Log reduction of antimicrobial performance: 1.52 Log
Solution dosage 0.20% o.w.f, exhaust temperature 85° C., process time 60 min
  Log reduction of antimicrobial performance: 1.65 Log
Solution dosage 0.20% o.w.f, exhaust temperature 90° C., process time 60 min
  Log reduction of antimicrobial performance: 1.65 Log
Solution dosage 0.20% o.w.f, exhaust temperature 95° C., process time 60 min
  Log reduction of antimicrobial performance: 1.65 Log
Solution dosage 0.50% o.w.f, exhaust temperature 40° C., process time 60 min
  Log reduction of antimicrobial performance: 0 Log
Solution dosage 0.50% o.w.f, exhaust temperature 60° C., process time 60 min
  Log reduction of antimicrobial performance: 0.17 Log
Solution dosage 0.50% o.w.f, exhaust temperature 65° C., process time 60 min
  Log reduction of antimicrobial performance: 0.18 Log
Solution dosage 0.50% o.w.f, exhaust temperature 70° C., process time 60 min
  Log reduction of antimicrobial performance: 0.19 Log
Solution dosage 0.50% o.w.f, exhaust temperature 75° C., process time 60 min
  Log reduction of antimicrobial performance: 1.23 Log
Solution dosage 0.50% o.w.f, exhaust temperature 80° C., process time 60 min
  Log reduction of antimicrobial performance: 1.78 Log
Solution dosage 0.50% o.w.f, exhaust temperature 85° C., process time 60 min
  Log reduction of antimicrobial performance: 1.82 Log
Solution dosage 0.50% o.w.f, exhaust temperature 90° C., process time 60 min
  Log reduction of antimicrobial performance: 1.83 Log
Solution dosage 0.50% o.w.f, exhaust temperature 95° C., process time 60 min
  Log reduction of antimicrobial performance: 1.83 Log
Solution dosage 0.80% o.w.f, exhaust temperature 40° C., process time 60 min
  Log reduction of antimicrobial performance: 0 Log
Solution dosage 0.80% o.w.f, exhaust temperature 60° C., process time 60 min
  Log reduction of antimicrobial performance: 0.23 Log
Solution dosage 0.80% o.w.f, exhaust temperature 65° C., process time 60 min
  Log reduction of antimicrobial performance: 0.24 Log
Solution dosage 0.80% o.w.f, exhaust temperature 70° C., process time 60 min
  Log reduction of antimicrobial performance: 0.36 Log
Solution dosage 0.80% o.w.f, exhaust temperature 75° C., process time 60 min
  Log reduction of antimicrobial performance: 1.32 Log
Solution dosage 0.80% o.w.f, exhaust temperature 80° C., process time 60 min
  Log reduction of antimicrobial performance: 2.13 Log
Solution dosage 0.80% o.w.f, exhaust temperature 85° C., process time 60 min
  Log reduction of antimicrobial performance: 2.23 Log
Solution dosage 0.80% o.w.f, exhaust temperature 90° C., process time 60 min
  Log reduction of antimicrobial performance: 2.34 Log
Solution dosage 0.80% o.w.f, exhaust temperature 95° C., process time 60 min
  Log reduction of antimicrobial performance: 2.34 Log
Solution dosage 1.00% o.w.f, exhaust temperature 40° C., process time 60 min
  Log reduction of antimicrobial performance: 0 Log
Solution dosage 1.00% o.w.f, exhaust temperature 60° C., process time 60 min
  Log reduction of antimicrobial performance: 0.28 Log
Solution dosage 1.00% o.w.f, exhaust temperature 65° C., process time 60 min
  Log reduction of antimicrobial performance: 0.29 Log
Solution dosage 1.00% o.w.f, exhaust temperature 70° C., process time 60 min
  Log reduction of antimicrobial performance: 0.42 Log
Solution dosage 1.00% o.w.f, exhaust temperature 75° C., process time 60 min
  Log reduction of antimicrobial performance: 1.45 Log
Solution dosage 1.00% o.w.f, exhaust temperature 80° C., process time 60 min
  Log reduction of antimicrobial performance: 2.56 Log
Solution dosage 1.00% o.w.f, exhaust temperature 85° C., process time 60 min
  Log reduction of antimicrobial performance: 2.69 Log
Solution dosage 1.00% o.w.f, exhaust temperature 90° C., process time 60 min
  Log reduction of antimicrobial performance: 2.71 Log
Solution dosage 1.00% o.w.f, exhaust temperature 95° C., process time 60 min
  Log reduction of antimicrobial performance: 2.71 Log
